Data reported in PubChem BioAssay AID330 (DTP/NCI, 2004).
“And” between values parts separate entries of the source, which are not always exact repeats. Equal values may be shown once. Toxic doses and inconclusive results are not listed.

Test system: P388 leukemia ip, CD2F1 mice, survival T/C
Experiment: NCI In Vivo Anticancer Drug Screen. Data for tumor model P388 Leukemia (intraperitoneal) in CD2F1 (CDF1) mice
Conditions: endpoint: median survival time, higher = longer survival
How it was run: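 Mice carrying the transplanted tumor received test compound or vehicle. Survival was recorded in each group, and the value is the treated-group measurement divided by that of the vehicle-treated control group.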

[1] = dose: 6.25 mg/kg/injection, schedule: Q04DX003 (ip), vehicle: saline
[2] = dose: 12.5 mg/kg/injection, schedule: Q04DX003 (ip), vehicle: saline
[3] = dose: 100.0 mg/kg/injection, schedule: Q01DX001 (ip), vehicle: saline with Tween-80
[4] = dose: 200.0 mg/kg/injection, schedule: Q01DX001 (ip), vehicle: saline with Tween-80
[5] = dose: 400.0 mg/kg/injection, schedule: Q01DX001 (ip), vehicle: saline with Tween-80
[6] = dose: 50.0 mg/kg/injection, schedule: Q01DX009 (ip), vehicle: saline
[7] = dose: 100.0 mg/kg/injection, schedule: Q01DX009 (ip), vehicle: saline
[8] = dose: 200.0 mg/kg/injection, schedule: Q01DX009 (ip), vehicle: saline
[9] = dose: 50.0 mg/kg/injection, schedule: Q01DX005 (ip), vehicle: Klucel (hydroxypropylcellulose) (HPC)
[10] = dose: 50.0 mg/kg/injection, schedule: Q01DX005 (ip), vehicle: saline with Tween-80
[11] = dose: 100.0 mg/kg/injection, schedule: Q01DX005 (ip), vehicle: saline with Tween-80
[12] = dose: 200.0 mg/kg/injection, schedule: Q01DX005 (ip), vehicle: saline with Tween-80

Compound: Cc1c2cc[n+](C)cc2c(C)c2c1[nH]c1ccc(O)cc12
- T/C (dose: 0.25 mg/kg/injection, schedule: Q04DX003 (ip), vehicle: water): 115 % of control
- T/C (dose: 0.25 mg/kg/injection, schedule: Q04DX003 (iv), vehicle: water): 94 % of control
- T/C (dose: 0.5 mg/kg/injection, schedule: Q04DX003 (iv), vehicle: water): 93 % of control
- T/C (dose: 0.78 mg/kg/injection, schedule: Q04DX003 (ip), vehicle: saline): 152 % of control
- T/C (dose: 1.0 mg/kg/injection, schedule: Q04DX003 (ip), vehicle: water): 151 % of control
- T/C (dose: 1.0 mg/kg/injection, schedule: Q04DX003 (iv), vehicle: water): 100 % of control
- T/C (dose: 1.56 mg/kg/injection, schedule: Q04DX003 (ip), vehicle: saline): 164 % of control
- T/C (dose: 2.0 mg/kg/injection, schedule: Q04DX003 (ip), vehicle: water): 152 % of control and 161 % of control
- T/C (dose: 2.0 mg/kg/injection, schedule: Q04DX003 (iv), vehicle: water): 111 % of control
- T/C (dose: 3.12 mg/kg/injection, schedule: Q04DX003 (ip), vehicle: saline): 172 % of control
- T/C (dose: 3.6 mg/kg/injection, schedule: Q04DX002 (ip), vehicle: saline): 176 % of control
- T/C (dose: 4.0 mg/kg/injection, schedule: Q04DX003 (iv), vehicle: water): 99 % of control
- T/C (dose: 4.5 mg/kg/injection, schedule: Q04DX002 (ip), vehicle: saline): 151 % of control
- T/C (dose: 6.0 mg/kg/injection, schedule: Q04DX002 (ip), vehicle: saline): 188 % of control
- T/C [1]: 150 % of control
- T/C (dose: 7.5 mg/kg/injection, schedule: Q04DX002 (ip), vehicle: saline): 94 % of control
- T/C [2]: 170 % of control
- T/C (dose: 50.0 mg/kg/injection, schedule: Q04DX003 (ip), vehicle: saline): 93 % of control
- T/C (dose: 100.0 mg/kg/injection, schedule: Q04DX003 (ip), vehicle: saline): 94 % of control

Compound: N#Cc1cc([N+](=O)[O-])c(Cl)c([N+](=O)[O-])c1Cl
- T/C (dose: 3.13 mg/kg/injection, schedule: Q04DX003 (ip), vehicle: saline with Tween-80): 100 % of control
- T/C (dose: 6.25 mg/kg/injection, schedule: Q04DX003 (ip), vehicle: saline with Tween-80): 100 % of control
- T/C (dose: 12.5 mg/kg/injection, schedule: Q04DX003 (ip), vehicle: saline with Tween-80): 100 % of control

Compound: Oc1cccc2ccccc12
- T/C (dose: 25.0 mg/kg/injection, schedule: Q01DX005 (ip), vehicle: water): 100 % of control
- T/C (dose: 50.0 mg/kg/injection, schedule: Q01DX005 (ip), vehicle: water): 101 % of control
- T/C (dose: 100.0 mg/kg/injection, schedule: Q01DX005 (ip), vehicle: water): 111 % of control
- T/C (dose: 200.0 mg/kg/injection, schedule: Q01DX005 (ip), vehicle: water): 104 % of control
- T/C (dose: 400.0 mg/kg/injection, schedule: Q01DX005 (ip), vehicle: water): 93 % of control

Compound: Clc1nc2n[nH]nc2nc1Cl
- T/C (dose: 3.13 mg/kg/injection, schedule: Q04DX003 (ip), vehicle: saline): 100 % of control
- T/C [1]: 90 % of control
- T/C [2]: 95 % of control

Compound: CC(C)(C)N1C(=O)[N+](C)(CCCCCC[N+]2(C)N=C([O-])N(C(C)(C)C)C2=O)N=C1[O-] (stereo not drawn)
- T/C (dose: 100.0 mg/kg/injection, schedule: Q04DX003 (ip), vehicle: saline with Tween-80): 95 % of control
- T/C (dose: 200.0 mg/kg/injection, schedule: Q04DX003 (ip), vehicle: saline with Tween-80): 100 % of control
- T/C (dose: 400.0 mg/kg/injection, schedule: Q04DX003 (ip), vehicle: saline with Tween-80): 108 % of control

Compound: CSC(SC)c1cc(C)no1
- T/C (dose: 60.0 mg/kg/injection, schedule: Q01DX005 (ip), vehicle: saline with Tween-80): 107 % of control
- T/C (dose: 120.0 mg/kg/injection, schedule: Q01DX005 (ip), vehicle: saline with Tween-80): 101 % of control
- T/C (dose: 240.0 mg/kg/injection, schedule: Q01DX005 (ip), vehicle: saline with Tween-80): 103 % of control

Compound: Brc1cnc2nc(-c3cccc4ccccc34)[nH]c2c1
- T/C [3]: 96 % of control
- T/C [4]: 94 % of control
- T/C [5]: 91 % of control

Compound: CC1(C)OC2(CC1C1(C)C=CC(=O)O1)CC1(O)C(CCC34CC13C(=O)OC4c1ccoc1)O2 (stereo not drawn)
- T/C [6]: 97 % of control
- T/C [7]: 90 % of control
- T/C [8]: 90 % of control

Compound: CC1CCC(OC(=O)N(CCCl)N=O)CC1 (stereo not drawn)
- T/C (dose: 3.12 mg/kg/injection, schedule: Q01DX001 (ip), vehicle: saline with Tween-80): 100 % of control
- T/C (dose: 6.25 mg/kg/injection, schedule: Q01DX001 (ip), vehicle: saline with Tween-80): 108 % of control
- T/C (dose: 12.5 mg/kg/injection, schedule: Q01DX001 (ip), vehicle: saline with Tween-80): 111 % of control
- T/C (dose: 25.0 mg/kg/injection, schedule: Q01DX001 (ip), vehicle: saline with Tween-80): 118 % of control
- T/C (dose: 50.0 mg/kg/injection, schedule: Q01DX001 (ip), vehicle: saline with Tween-80): 105 % of control
- T/C [3]: 114 % of control and 86 % of control
- T/C (dose: 150.0 mg/kg/injection, schedule: Q01DX001 (ip), vehicle: saline with Tween-80): 100 % of control

Compound: C(/Oc1ccc(-c2ccccc2)cc1)=C(/c1ccccc1)c1ccccc1-c1ccccc1
- T/C [9]: 101 % of control
- T/C (dose: 100.0 mg/kg/injection, schedule: Q01DX005 (ip), vehicle: Klucel (hydroxypropylcellulose) (HPC)): 99 % of control
- T/C (dose: 200.0 mg/kg/injection, schedule: Q01DX005 (ip), vehicle: Klucel (hydroxypropylcellulose) (HPC)): 92 % of control

Compound: COC(=O)C1=CCOc2c1c(C(=O)OC)nn2C
- T/C [10]: 97 % of control
- T/C [11]: 98 % of control
- T/C [12]: 96 % of control

Compound: CCOC(=O)C(CNc1ccc(OCc2ccccc2)cc1)NC(=O)c1ccccc1 (stereo not drawn)
- T/C (dose: 50.0 mg/kg/injection, schedule: Q01DX009 (ip), vehicle: saline with Tween-80): 105 % of control
- T/C [6]: 96 % of control
- T/C (dose: 100.0 mg/kg/injection, schedule: Q01DX009 (ip), vehicle: saline with Tween-80): 100 % of control
- T/C [7]: 88 % of control
- T/C (dose: 200.0 mg/kg/injection, schedule: Q01DX009 (ip), vehicle: saline with Tween-80): 87 % of control
- T/C [8]: 88 % of control
- T/C (dose: 400.0 mg/kg/injection, schedule: Q01DX009 (ip), vehicle: saline with Tween-80): 91 % of control

Compound: CC1(C)Cc2cc3ccccc3nc2-c2ccccc21
- T/C [10]: 107 % of control
- T/C [11]: 102 % of control
- T/C [12]: 107 % of control

Compound: COC(=O)C(C)c1[nH]c2ccccc2c1[Se]c1ccccc1 (stereo not drawn)
- T/C [3]: 102 % of control
- T/C [4]: 106 % of control
- T/C [5]: 94 % of control

Compound: CC1OC(O[C@H]2CC[C@]3(C=O)[C@H]4CC[C@]5(C)[C@@H](C6=COC(=O)C6)CC[C@]5(O)[C@@H]4CC[C@]3(O)C2)C(O)C(O)C1OC1OC(CO)C(O)C(O)C1O (stereo partly drawn)
- T/C (dose: 25.0 mg/kg/injection, schedule: Q01DX005 (ip), vehicle: Klucel (hydroxypropylcellulose) (HPC)): 101 % of control
- T/C [9]: 98 % of control

Compound: O=C1C(N=Nc2ccccc2Cl)C(O)N(c2ccccc2)C(=S)N1c1cccc(Cl)c1Cl (stereo not drawn)
- T/C (dose: 100.0 mg/kg/injection, schedule: Q01DX001 (ip), vehicle: Klucel (hydroxypropylcellulose) (HPC)): 98 % of control
- T/C (dose: 200.0 mg/kg/injection, schedule: Q01DX001 (ip), vehicle: Klucel (hydroxypropylcellulose) (HPC)): 103 % of control
- T/C (dose: 400.0 mg/kg/injection, schedule: Q01DX001 (ip), vehicle: Klucel (hydroxypropylcellulose) (HPC)): 97 % of control

Compound: CC(C)(C)OC(=O)N[C@@H](CNOCc1ccccc1)C(N)=O
- T/C [10]: 92 % of control
- T/C [11]: 92 % of control
- T/C [12]: 86 % of control

Compound: O=c1cc(-c2ccccc2)ss1
- T/C (dose: 100.0 mg/kg/injection, schedule: Q01DX009 (ip), vehicle: other): 110 % of control
- T/C (dose: 200.0 mg/kg/injection, schedule: Q01DX009 (ip), vehicle: other): 110 % of control

Compound: CCCCNC(=O)ON1C(=O)c2ccccc2C1=O
- T/C (dose: 1.56 mg/kg/injection, schedule: Q01DX009 (ip), vehicle: saline with Tween-80): 105 % of control
- T/C (dose: 3.12 mg/kg/injection, schedule: Q01DX009 (ip), vehicle: saline with Tween-80): 105 % of control
- T/C (dose: 6.25 mg/kg/injection, schedule: Q01DX009 (ip), vehicle: saline with Tween-80): 102 % of control and 117 % of control
- T/C (dose: 12.5 mg/kg/injection, schedule: Q01DX009 (ip), vehicle: saline with Tween-80): 110 % of control and 113 % of control
- T/C (dose: 25.0 mg/kg/injection, schedule: Q01DX009 (ip), vehicle: saline with Tween-80): 119 % of control
